Drawing on patent US8697690B2, “Isoindolone M1 receptor positive allosteric modulators” (Merck Sharp & Dohme Corp., priority 2010, dated 2014), this text covers EC50 for five compounds.

The target of this assay is T1, acetylcholine muscarinic M1 receptor (Homo sapiens, UniProt P11229).
T1 construct: expressed in transfected cells; host or cells: CHOnfat cells (CHO with NFAT reporter background), Geneticin-selected
T1 sequence (P11229 1-460): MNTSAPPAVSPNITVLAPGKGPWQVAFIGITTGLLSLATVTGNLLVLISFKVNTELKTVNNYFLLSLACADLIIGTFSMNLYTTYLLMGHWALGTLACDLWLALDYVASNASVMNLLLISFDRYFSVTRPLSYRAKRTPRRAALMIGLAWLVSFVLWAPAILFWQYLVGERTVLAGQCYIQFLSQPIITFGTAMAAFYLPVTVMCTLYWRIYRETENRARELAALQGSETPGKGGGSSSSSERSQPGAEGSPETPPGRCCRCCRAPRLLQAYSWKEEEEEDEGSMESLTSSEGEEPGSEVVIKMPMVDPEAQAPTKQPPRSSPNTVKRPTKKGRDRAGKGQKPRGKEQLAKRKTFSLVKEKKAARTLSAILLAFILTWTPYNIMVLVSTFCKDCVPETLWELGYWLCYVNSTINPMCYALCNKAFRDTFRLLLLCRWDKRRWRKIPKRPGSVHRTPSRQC
The experiment in a line: muscarinic FLIPR assay: intracellular calcium in CHOnfat/hM1 cells, potentiation of EC20 acetylcholine. The conditions noted are these: IP = inflection point calculated from FLIPR values, 4 min preincubation, then EC20 acetylcholine (3 nM final). It is filed as cell-based. The procedure: The assay studies the effect of one or several concentrations of test compounds on basal or acetylcholine-stimulated Ca^2+ levels using FLIPR.
Compounds are prepared and subjected to a preincubation period of 4 min. Thereafter, a single EC20 concentration of acetylcholine is added to each well (3 nM final). The intracellular Ca^2+ level of each sample is measured and compared to an acetylcholine control to determine any modulatory activity.
Cells: CHOnfat/hM1, hM2, hM3 or hM4 cells are plated 24 hr before the assay at a density of 18,000 cells/well (100 μL) in a 384 well plate. CHOnfat/hM1 and CHOnfat/hM3 Growth Medium: 90% DMEM (Hi Glucose); 10% HI FBS; 2 mM L-glutamine; 0.1 mM NEAA; Pen-Strep; and 1 mg/ml Geneticin, are added. For M2Gqi5CHOnfat and M4Gqi5CHOnfat cells, an additional 600 ug/ml hygromycin is added.
Equipment: 384 well plate, 120 μL addition plate; 96-well Whatman 2 ml Uniplate Incubator, 37° C., 5% CO2; Skatron EMBLA-384 Plate Washer; Multimek Pipetting System; Genesis Freedom 200 System; Mosquito System; Temo Nanoliter Pipetting System; and FLIPR^384 Fluorometric Imaging Plate Reader System are used.
Buffers. Assay Buffer: Hanks Balanced Salt Solution, with 20 mM Hepes, 2.5 mM Probenecid (Sigma P-8761) first dissolved in 1 N NaOH, 1% Bovine Serum Albumin (Sigma A-9647). Dye Loading Buffer: Assay Buffer plus 1% Fetal Bovine Serum and Fluo-4AM/Pluronic Acid Mixture. 2 mM Fluo-4AM ester stock in DMSO (Molecular Probes F-14202) Concentration of 2 μM in buffer for a final concentration of 1 μM in Assay. 20% Pluronic Acid Solution stock, with concentration of 0.04% in Buffer, 0.02% in Assay.
65 μL of 2 mM Fluo-4AM are mixed with 130 μL of 20% Pluronic Acid. The resulting solution and 650 μL FBS is added to the assay buffer for a total volume of 65 mL. Positive Controls: 4-Br-A23187: 10 mM in DMSO; final concentration […]. Acetylcholine: 10 mM in water, working stock at both 20 μM and 30 μM in assay buffer, final concentration of 10 μM. This is used to check the maximum stimulation of the CHOK1/hM1 cells. 20 μM (2×) acetylcholine is added in the preincubation part of the assay, and the 30 μM (3×) stock is added in the second part. (EC20)Acetylcholine: 10 mM in water, working stock of 9 nM (3×), and final concentration in assay is 3 nM. This is used after the preincubation with test compounds. Addition of the EC20 Acetylcholine to each well with a test compound will ascertain any modulator activity. 24 wells contain 3 nM Acetylcholine alone as a control.
Determining Activity of Putative Compounds:
Screening Plate Compounds are titrated in 96-well plates (columns 2-11), 100% DMSO, started at a concentration of 15 mM (150× stock concentration), and 3-fold serial dilutions using Genesis Freedom200 System. Four 96-well plates are combined into a 384-well plate using Mosquito Nanoliter Pipetting System by transferring 1 μl of serial diluted compounds to each well, and 1 mM acetylcholine (100× stock concentration) were added as a control. Using Temo, 49 μl assay buffer is added to each well of the 384-well plate right before assay.
In a 96-well Whatman 2 ml Uniplate, 9 nM Acetylcholine (3×) is pipetted into wells corresponding to the screening compounds, and into control wells. The 30 μM acetylcholine control (3×) is added into control wells, and the 3× agonist plate is transferred into a 384 well plate.
Cells are washed three times with 100 μL of buffer, leaving 30 μL of buffer in each well. Using Multimek, 30 μL of Dye Loading Buffer is added into each well and incubated at 37° C., 5% CO2 for up to one hr.
After 60 min, the cells are washed three times with 100 μL of buffer, leaving 30 μL of buffer in each well. The cell plate, screening plate, and agonist addition plates are placed on the platform in the FLIPR and the door closed. A signal test to check background fluorescence and basal fluorescence signal is performed. Laser intensity is adjusted if necessary. […]
For `O=CCC1c2c(cc(Cc3ccc(Cl)nc3)c3cccnc23)C(=O)N1[C@H]1CCCC[C@@H]1O` (stereo partly drawn) [Example 22, {5-[(6-Chloropyridin-3-yl)methyl]-8-[(1S,2S)-2-hydroxycyclohexyl]-7-oxo-8,9-dihydro-7H-pyrrolo[3,4-h]quinolin-9-yl}acetaldehyde], the EC50 was 0.015 µM.

For `O=C1c2cc(Cc3ccc(Cl)nc3)c3cccnc3c2C(CCO)N1[C@H]1CCCC[C@@H]1O` (stereo partly drawn) [Example 24, 5-[(6-Chloropyridin-3-yl)methyl]-8-[(1S,2S)-2-hydroxycyclohexyl]-9-(2-hydroxyethyl)-8,9-dihydro-7H-pyrrolo[3,4-h]quinolin-7-one], the EC50 is 0.0074 µM.

Turning to `O=C1c2cc(Cc3ccc(OCc4ccccc4)nc3)c3cccnc3c2CN1[C@H]1CCCC[C@@H]1O` [Example 19], the EC50 was 0.041 µM.

Consider `O=C1c2cc(Cc3ccc(C4CC4)nc3)c3cccnc3c2CN1[C@H]1CCCC[C@@H]1O` [Example 25, 5-[(6-Cyclopropylpyridin-3-yl)methyl]-8-[(1S,2S)-2-hydroxycyclohexyl-8,9-dihydro-7H-pyrrolo 3,4-h]quinolin-7-one], for which the EC50 was 0.0105 µM.

Take `N#Cc1ccc(Cc2cc3c(c4ccccc24)CN([C@H]2CCCC[C@@H]2O)C3=O)cn1` [Example 9, 5-({2-[(1S,2S)-2-Hydroxycyclohexyl]-3-oxo-2,3-dihydro-1H-benzo[e]isoindol-5-yl}methyl)pyridine-2-carbonitrile]: the concentration giving a half-maximal response (EC50) is 0.013 µM.
